Assay results: PubChem BioAssay (NCI)
Where “and” joins values, the source holds several entries; their conditions need not be identical. Equal entries are not always repeated.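 The compound was tested at five concentrations on cells cultured in 96-well plates, with a 48-hour exposure period. GI50 is the concentration that inhibits growth by half. TGI: concentration producing complete growth inhibition.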

What was measured:
Assay in all cases: growth of human tumour cells (NCI), 48 h
CCRF-CEM leukemia = system: CCRF-CEM leukemia
COLO 205 colon = system: COLO 205 colon
HL-60(TB) leukemia = system: HL-60(TB) leukemia
NCI-H460 lung = system: NCI-H460 lung
OVCAR-5 ovarian = system: OVCAR-5 ovarian
PC-3 prostate = system: PC-3 prostate
SF-295 CNS = system: SF-295 CNS
SNB-75 CNS = system: SNB-75 CNS
UO-31 renal = system: UO-31 renal
RPMI-8226 leukemia = system: RPMI-8226 leukemia

Row | SMILES | TGI (CCRF-CEM leukemia) | TGI (COLO 205 colon) [µM] | TGI (HL-60(TB) leukemia) | TGI (NCI-H460 lung) [µM] | TGI (OVCAR-5 ovarian) [µM] | TGI (PC-3 prostate) | TGI (SF-295 CNS) [µM] | TGI (SNB-75 CNS) [µM] | TGI (UO-31 renal) | GI50 (CCRF-CEM leukemia) [µM] | GI50 (COLO 205 colon) [µM] | GI50 (HL-60(TB) leukemia) [µM] | GI50 (NCI-H460 lung) [µM] | GI50 (OVCAR-5 ovarian) [µM] | GI50 (PC-3 prostate) [µM] | GI50 (SF-295 CNS) [µM] | GI50 (SNB-75 CNS) | GI50 (UO-31 renal) [µM] | GI50 (RPMI-8226 leukemia) [µM] | TGI (RPMI-8226 leukemia) [µM]
1 | O=C1CC2OCC=C3CN4CCC5(C(=O)O)C(N1)C2C3CC45 (configuration not stated) | > 100 µM | > 100 | > 100 µM | > 100 | > 100 | > 100 µM | > 100 | > 100 | > 100 µM |  |  |  |  |  |  |  |  |  |  | 
2 | C=Cc1cc(OC)c2c(c1)c(=O)oc1c2cc(OC)c2c(O)ccc(C3OC(C(C)O)C(O)C3O)c21 (configuration not stated) | 0.0312 µM | 0.102 | 0.0197 µM | 0.166 | 0.0969 | 0.153 µM | 0.0431 | 0.0515 | 0.0399 µM | 0.00245 | 0.0113 | 0.00216 | 0.00573 | 0.00309 | 0.0105 | 0.00366 | 0.0157 µM | 0.00262 |  | 
3 | COc1ccc(/C=C/C(=O)c2ccc(Nc3nc(Nc4ccc(F)cc4)nc(Nc4ccc(F)cc4)n3)cc2)cc1 | 48.2 µM | 29.6 | 30.5 µM | 72.4 | > 100 | 21.4 µM | 42.7 | > 100 | 31.9 µM | 5.15 | 9.57 | 4.96 | 13 | 40.2 | 5.06 | 14.2 | 30.6 µM | 10.2 | 6.66 | > 100
4 | Nc1ccn(C2CC3OCC3O2)c(=O)n1 (configuration not stated) | > 100 µM | > 100 | > 100 µM | > 100 | > 100 | > 100 µM | > 100 | > 100 | > 100 µM |  |  |  |  |  |  |  |  |  |  | > 100
5 | CC(C)OP(=O)(OC(C)C)/C(C#N)=C/c1c[nH]c2ccccc12 | > 100 µM | > 100 | > 100 µM | > 100 | > 100 | > 100 µM | > 100 | > 100 |  |  |  |  |  |  |  |  |  |  |  | > 100
6 | NC1=C(O)C(=O)C(c2c[nH]c3ccc(OCc4ccccc4)cc23)O1 (configuration not stated) | > 100 µM | > 100 | > 100 µM | > 100 | > 100 | > 100 µM | > 100 | > 91.3 | > 100 µM | > 100 |  |  |  |  |  |  |  |  |  | > 100
7 | Cc1c(C2CCSc3ccccc3N2)sc2ccccc12 (configuration not stated) |  | > 100 | > 100 µM | > 100 |  | > 100 µM | > 100 | > 100 | > 100 µM |  |  |  |  |  |  |  |  |  |  | > 100
8 | O=[N+]([O-])c1ccc2nc(-c3ccc(Cl)cc3)[nH]c2c1 |  | 30.7 |  | 45.4 |  | 63.6 µM | 42.7 | 68.5 | 59.7 µM |  |  |  |  |  |  |  |  |  |  | 57.4
9 | CCCC(=O)OC(OC(=O)CCC)c1ccc([N+](=O)[O-])o1 | > 100 µM | 54.9 | 88.3 µM | > 100 | 39.6 | > 100 µM | > 100 | > 100 | 56.7 µM |  |  |  |  |  |  |  |  |  |  | 49.7
10 | O=C1C=CC(=O)c2c(O)c(N(CCCl)CCCl)c(Cl)c(O)c21 | > 7.38 µM | 5.57 | > 10 µM | > 10 | > 9.1 | > 8.55 µM | > 10 | > 10 | > 7.1 µM |  |  |  |  |  |  |  |  |  |  | > 10
11 | CNC(=O)c1cc(-c2ccc(F)cc2)cc(-c2ccc(S(=O)(=O)N3CCCC3)cc2)c1N | > 25 µM | > 25 | > 25 µM | > 25 | > 25 | > 25 µM | > 25 | > 25 | > 25 µM | > 20.7 | 23.5 | 7.41 | 15.1 | > 25 | 8.54 | 10.6 | 12.7 µM | 11.3 | 10.1 | > 25
12 | CCN(CC)CCNc1ccc([N+](=O)[O-])c2nc3ccc(OC)cc3c(N)c12 | 1.31 µM | 1.65 | 0.246 µM | 2.67 | 3.15 | 2.78 µM | 2.96 | 3.64 | 3.13 µM |  |  |  |  |  |  |  |  |  |  | 0.704
13 | COc1ccc2c(c1)C=CC1C2CC[C@]2(C)C(NC(=O)/C=C/c3ccc(O)c(O)c3)CCC12 (some centres not stated) | 19.5 µM | 7.75 | 23.8 µM | 14.4 | 38.9 | 18 µM | 70.3 | 20.5 | 27.3 µM | 4.36 | 2.61 | 5.01 | 3.93 | 20.1 | 4.64 | 31.7 | 6.01 µM | 10.2 | 7.98 | 39.1
14 | C[C@@H]1Cc2c(ccc3[nH]ncc23)[C@@H](c2ccc(NC3CN(CCCF)C3)cn2)N1CC(F)(F)F | 67.3 µM | 35.5 | 43.4 µM | 37.8 | > 100 | 47.8 µM | 36.9 | > 100 | 26.8 µM | 21.1 | 16.5 | 15.7 | 18.8 | 26.4 | 15.6 | 18 | 12.7 µM | 12.6 | 18.6 | 47.4
15 | Cc1nc2sc(C(=O)Nc3ccccc3)c(N)c2cc1C(=O)c1ccccc1 | > 50 µM | 7.55 | 38.1 µM | > 50 | > 50 | > 50 µM | > 50 | > 50 | > 50 µM | 1.69 | 1.86 | 0.0138 | 1.66 | 2.9 | 1.66 | 1.83 | 1.87 µM | 3.58 | 1.86 | > 50
16 | COC(=O)Nc1nc2ccc(C(=O)c3cccs3)cc2[nH]1 | 19.8 µM and > 100 µM | 2.09 | 0.0753 µM and 0.415 µM |  | > 100 | 14.2 µM and > 100 µM |  | > 100 | 38.2 µM and > 100 µM | 0.124 |  | 0.0897 | 0.239 | 0.545 | 0.246 | 0.109 | < 0.0192 µM and 0.171 µM | 3.23 | 0.407 | 
17 | N/C(CC(=O)NOC(=O)c1ccccc1)=N/OC(=O)c1ccccc1 | > 100 µM | > 100 | > 100 µM | > 100 | > 100 | > 100 µM | 61.6 |  | 53.9 µM |  |  |  |  |  |  |  |  |  |  | > 100
